The results in this text go back to patent publication US20260258035A1, “FIVE-MEMBERED AND SIX-MEMBERED NITROGEN-CONTAINING COMPOUND, AND INTERMEDIATE, PREPARATION METHOD AND USE THEREOF” (HANGZHOU SYNRX THERAPEUTICS BIOMEDICAL TECHNOLOGY CO., LTD., priority 2022, published 2026).

One experiment has as its target PARG (Homo sapiens, UniProt Q86W56). As to the kind of experiment: Biochemical assay (PARG, TFMU-ADPr substrate).
Another experiment relates to HCC1806. As to the kind of experiment: Cell viability assay (CellTiter-Glo). Type of experiment: cell-based, Human. The note with it: read-out: IC50 (nM) in cell viability assay. In general terms: Cellular ATP, detected with luciferase, serves as a proxy for viable cell number.
The mark [1] stands for this setting: Homo sapiens, HCC1806, 168 h, HCC1806, 7 days, CellTiter-Glo.

Read-outs that look alike come from different tables or passages of the source. Where only a bound is given, the exact number is not on record here.

In general, IC50 refers to the concentration that inhibits the measured activity by half.

Sequence of PARG (Q86W56 whole entry): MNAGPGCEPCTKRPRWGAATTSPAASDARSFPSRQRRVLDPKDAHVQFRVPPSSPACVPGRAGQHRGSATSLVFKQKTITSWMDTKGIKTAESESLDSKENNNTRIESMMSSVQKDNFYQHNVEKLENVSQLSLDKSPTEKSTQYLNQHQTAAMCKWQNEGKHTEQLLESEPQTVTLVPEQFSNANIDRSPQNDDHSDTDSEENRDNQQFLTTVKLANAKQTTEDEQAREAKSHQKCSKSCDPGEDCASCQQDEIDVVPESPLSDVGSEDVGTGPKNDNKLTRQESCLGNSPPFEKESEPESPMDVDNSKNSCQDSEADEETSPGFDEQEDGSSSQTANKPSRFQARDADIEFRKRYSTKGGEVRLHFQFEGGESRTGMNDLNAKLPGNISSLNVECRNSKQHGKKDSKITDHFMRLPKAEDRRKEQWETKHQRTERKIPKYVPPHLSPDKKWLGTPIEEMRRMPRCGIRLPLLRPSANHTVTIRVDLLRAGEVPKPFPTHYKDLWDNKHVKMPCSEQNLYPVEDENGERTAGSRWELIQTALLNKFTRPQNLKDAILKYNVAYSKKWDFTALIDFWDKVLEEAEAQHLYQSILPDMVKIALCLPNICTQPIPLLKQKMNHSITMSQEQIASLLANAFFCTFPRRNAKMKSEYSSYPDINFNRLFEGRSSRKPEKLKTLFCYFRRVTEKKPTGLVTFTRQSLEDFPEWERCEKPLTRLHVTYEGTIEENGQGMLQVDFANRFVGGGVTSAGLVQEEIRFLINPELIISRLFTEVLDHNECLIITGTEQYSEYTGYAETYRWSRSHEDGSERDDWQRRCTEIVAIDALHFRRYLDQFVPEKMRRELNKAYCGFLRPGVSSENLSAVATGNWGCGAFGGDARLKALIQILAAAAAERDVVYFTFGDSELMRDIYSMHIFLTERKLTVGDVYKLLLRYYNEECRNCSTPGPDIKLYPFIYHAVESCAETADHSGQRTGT

Consider `[2H]c1nc(-c2nnc(C(F)F)s2)n2cc(S(=O)(=O)NC3(C)COC3)cc(N3CCNC(COC)C3)c12` (stereo not shown) [Example 158, 3-(5-(difluoromethyl)-1,3,4-thiadiazol-2-yl)-8-(3-(methoxymethyl)piperazin-1-yl)-N-(3-methyloxetan-3-yl)imidazo[1,5-a]pyridine-6-sulfonamide-1-d], for which the IC50 against PARG (PARG, TFMU-ADPr substrate) amounted to 15.8 nM; in the experiment with HCC1806 (setting [1]), 1090 nM.

On to `CC(O)(C#Cc1ccccc1)C(=O)N1CCN(c2cc(S(=O)(=O)NC3(C#N)CC3)cn3c(-c4nnc(C(F)(F)F)s4)ncc23)CC1` (stereo not shown) [Example 257, N-(1-cyanocyclopropyl)-8-(4-(2-hydroxy-2-methyl-4-phenylbut-3-ynoyl)piperazin-1-yl)-3-(5-(trifluoromethyl)-1,3,4-thiadiazol-2-yl)imidazo[1,5-a]pyridine-6-sulfonamide], for which the IC50 against PARG (PARG, TFMU-ADPr substrate) turned out to be 191 nM; with HCC1806 (setting [1]) it was 2110 nM.

`N#CC1(NS(=O)(=O)c2cc(N3CCN(C(=O)C4CC(O)C4)CC3)c3cnc(-c4nnc(C(F)(F)F)s4)n3c2)CC1` (stereo not shown) [Example 283, N-(1-cyanocyclopropyl)-8-(4-(3-hydroxycyclobutane-1-carbonyl)piperazin-1-yl)-3-(5-(trifluoromethyl)-1,3,4-thiadiazol-2-yl)imidazo[1,5-a]pyridine-6-sulfonamide]: the IC50 on PARG (PARG, TFMU-ADPr substrate) was found to be 3.8 nM; in the experiment on HCC1806 (setting [1]), 539 nM.

With `N#CC1(NS(=O)(=O)c2cc(N3CCN(C(=O)[C@H]4CCN4)CC3)c3cnc(-c4nnc(C(F)(F)F)s4)n3c2)CC1` [Example 264, (R)-8-(4-(azetidine-2-carbonyl)piperazin-1-yl)-N-(1-cyanocyclopropyl)-3-(5-(trifluoromethyl)-1,3,4-thiadiazol-2-yl)imidazo[1,5-a]pyridine-6-sulfonamide], the IC50 amounted to 75.9 nM against PARG (PARG, TFMU-ADPr substrate) and 6640 nM in the experiment with HCC1806 (setting [1]).

For `CN1CC[C@@H]1C(=O)N1CCN(c2cc(S(=O)(=O)NC3(C)CC3)cn3c(-c4nnc(C(F)F)s4)ncc23)CC1` [Example 309, (R)-3-(5-(difluoromethyl)-1,3,4-thiadiazol-2-yl)-8-(4-(1-methylazetidine-2-carbonyl)piperazin-1-yl)-N-(1-methylcyclopropyl)imidazo[1,5-a]pyridine-6-sulfonamide], the half-maximal inhibitory concentration (IC50) came out at 1.03 nM against PARG (PARG, TFMU-ADPr substrate) and 570 nM in the experiment on HCC1806 (setting [1]).

Regarding `CN1CC(F)(F)C[C@@H]1C(=O)N1CCN(c2cc(S(=O)(=O)NC3(C)CC3)cn3c(-c4nnc(C(F)(F)F)s4)ncc23)CC1` [Example 353, (R)-8-(4-(4,4-difluoro-1-methylpyrrolidine-2-carbonyl)piperazin-1-yl)-N-(1-methylcyclopropyl)-3-(5-(trifluoromethyl)-1,3,4-thiadiazol-2-yl)imidazo[1,5-a]pyridine-6-sulfonamide], the IC50 against PARG (PARG, TFMU-ADPr substrate) came to 12.6 nM; in the experiment on HCC1806 (setting [1]), 434 nM.

On to `CC1(NS(=O)(=O)c2cc(N3CCC(O)(C(F)(F)F)CC3)c3cnc(-c4nnc(C(F)F)s4)n3c2)COC1` [Example 72, 3-(5-(difluoromethyl)-1,3,4-thiadiazol-2-yl)-8-(4-hydroxy-4-(trifluoromethyl)piperidin-1-yl)-N-(3-methyloxetan-3-yl)imidazo[1,5-a]pyridine-6-sulfonamide], for which the IC50 against PARG (4 nM PARG, 66.2 uM TFMU-ADPr, 3 min at room temperature) was less than 100 nM; on PARG (PARG, TFMU-ADPr substrate), 17.8 nM; with HCC1806 (HCC1806, 7 days, CellTiter-Glo), 805 nM; in the experiment with HCC1806 (setting [1]), 500 to 5000 nM.

As for `Cc1nc(-c2nnc(C(F)F)s2)n2cc(S(=O)(=O)NC3(C)COC3)cc(N3CCC4(CC3)COC4)c12` [Example 169, 3-(5-(difluoromethyl)-1,3,4-thiadiazol-2-yl)-1-methyl-N-(3-methyloxetan-3-yl)-8-(2-oxa-7-azaspiro[3.5]nonan-7-yl)imidazo[1,5-a]pyridine-6-sulfonamide], the IC50 was determined as 1.82 nM against PARG (PARG, TFMU-ADPr substrate) and 27 nM in the experiment with HCC1806 (setting [1]).

Consider `CC(C)C(=O)N1CCN(c2cc(S(=O)(=O)NC3CC3)cn3c(-c4nnc(C(F)(F)F)s4)ncc23)CC1` [Example 210, N-cyclopropyl-8-(4-isobutyrylpiperazin-1-yl)-3-(5-(trifluoromethyl)-1,3,4-thiadiazol-2-yl)imidazo[1,5-a]pyridine-6-sulfonamide], for which the IC50 against PARG (PARG, TFMU-ADPr substrate) was 83.2 nM; in the experiment with HCC1806 (setting [1]), 929 nM.

Take `CN(C)CCOC1(C(=O)N2CCN(c3cc(S(=O)(=O)NC4(C)CC4)cn4c(-c5nnc(C(F)(F)F)s5)ncc34)CC2)CC1` [Example 384, 8-(4-(1-(2-(dimethylamino)ethoxy)cyclopropane-1-carbonyl)piperazin-1-yl)-N-(1-methylcyclopropyl)-3-(5-(trifluoromethyl)-1,3,4-thiadiazol-2-yl)imidazo[1,5-a]pyridine-6-sulfonamide]: the IC50 against PARG (PARG, TFMU-ADPr substrate) was less than 0.15 nM; with HCC1806 (setting [1]) it was 17.6 nM.

As for `N#CC1(NS(=O)(=O)c2cc(N3CCC(n4cncn4)CC3)c3cnc(-c4nnc(C(F)(F)F)s4)n3c2)CC1` [Example 213, 8-(4-(1H-1,2,4-triazol-1-yl)piperidin-1-yl)-N-(1-cyanocyclopropyl)-3-(5-(trifluoromethyl)-1,3,4-thiadiazol-2-yl)imidazo[1,5-a]pyridine-6-sulfonamide], the IC50 worked out at 31.6 nM against PARG (PARG, TFMU-ADPr substrate) and 1200 nM in the experiment on HCC1806 (setting [1]).

Consider `CN(C)CCCOC1(C(=O)N2CCN(c3cc(S(=O)(=O)NC4(C)CC4)cn4c(-c5nnc(C(F)(F)F)s5)ncc34)CC2)CC1` [Example 385, 8-(4-(1-(3-(dimethylamino)propoxy)cyclopropane-1-carbonyl)piperazin-1-yl)-N-(1-methylcyclopropyl)-3-(5-(trifluoromethyl)-1,3,4-thiadiazol-2-yl)imidazo[1,5-a]pyridine-6-sulfonamide], for which the IC50 on PARG (PARG, TFMU-ADPr substrate) was 0.48 nM; with HCC1806 (Homo sapiens, HCC1806, 168 h), 40 nM.

As to `CC#CC(C)(O)C(=O)N1CCN(c2cc(S(=O)(=O)NC3(C#N)CC3)cn3c(-c4nnc(C(F)(F)F)s4)ncc23)CC1` (stereo not shown) [Example 256, N-(1-cyanocyclopropyl)-8-(4-(2-hydroxy-2-methylpent-3-ynoyl)piperazin-1-yl)-3-(5-(trifluoromethyl)-1,3,4-thiadiazol-2-yl)imidazo[1,5-a]pyridine-6-sulfonamide], the IC50 against PARG (PARG, TFMU-ADPr substrate) worked out at 8.71 nM; in the experiment with HCC1806 (setting [1]), 80 nM.

As to `CC1(O)CC2(CCN(c3cc(S(=O)(=O)NC4(C#N)CC4)cn4c(-c5nnc(C(F)(F)F)s5)ncc34)CC2)C1` [Example 242, N-(1-cyanocyclopropyl)-8-(2-hydroxy-2-methyl-7-azaspiro[3.5]nonan-7-yl)-3-(5-(trifluoromethyl)-1,3,4-thiadiazol-2-yl)imidazo[1,5-a]pyridine-6-sulfonamide], the IC50 against PARG (PARG, TFMU-ADPr substrate) worked out at 52.5 nM; with HCC1806 (setting [1]) it was 2980 nM.

On to `COC[C@@H]1CN(c2cc(S(=O)(=O)NC3(C#N)CC3)cn3c(-c4nnc(C(F)F)s4)ncc23)CCN1C(=O)C(C)C` [Example 223, (S)-N-(1-cyanocyclopropyl)-3-(5-(difluoromethyl)-1,3,4-thiadiazol-2-yl)-8-(4-isobutyryl-3-(methoxymethyl)piperazin-1-yl)imidazo[1,5-a]pyridine-6-sulfonamide], for which the IC50 was 1.45 nM against PARG (PARG, TFMU-ADPr substrate) and 250 nM in the experiment with HCC1806 (setting [1]).

`CC1(NS(=O)(=O)c2cc(N3CCN(C(=O)C4CNC4)CC3)c3cnc(-c4nnc(C(F)(F)F)s4)n3c2)CC1` [Example 277, 8-(4-(azetidine-3-carbonyl)piperazin-1-yl)-N-(1-methylcyclopropyl)-3-(5-(trifluoromethyl)-1,3,4-thiadiazol-2-yl)imidazo[1,5-a]pyridine-6-sulfonamide]: the IC50 on PARG (PARG, TFMU-ADPr substrate) was 25.1 nM; in the experiment on HCC1806 (setting [1]), 4470 nM.

Take `[2H]C([2H])([2H])OCC1CN(c2cc(S(=O)(=O)NC3(C)COC3)cn3c(-c4nnc(C(F)F)s4)nc(Cl)c23)CCN1` (stereo not shown) [Example 391, 1-chloro-3-(5-(difluoromethyl)-1,3,4-thiadiazol-2-yl)-8-(3-((methoxy-d3)methyl)piperazin-1-yl)-N-(3-methyloxetan-3-yl)imidazo[1,5-a]pyridine-6-sulfonamide]: the IC50 at PARG (PARG, TFMU-ADPr substrate) worked out at 5.01 nM; with HCC1806 (setting [1]), 177 nM.

As for `CC1(NS(=O)(=O)c2cc(N3CCN4C(=O)CCC4C3)c3cnc(-c4nnc(C(F)(F)F)s4)n3c2)COC1` (stereo not shown) [Example 186, N-(3-methyloxetan-3-yl)-8-(6-oxohexahydropyrrolo[1,2-a]pyrazin-2(1H)-yl)-3-(5-(trifluoromethyl)-1,3,4-thiadiazol-2-yl)imidazo[1,5-a]pyridine-6-sulfonamide], the IC50 on PARG (PARG, TFMU-ADPr substrate) worked out at 5.62 nM; in the experiment on HCC1806 (setting [1]) it was 485 nM.

As for `C[C@H]1CN(c2cc(S(=O)(=O)NC3(C)COC3)cn3c(-c4nnc(C(F)F)s4)ncc23)CCN1` [Example 181, (S)-3-(5-(difluoromethyl)-1,3,4-thiadiazol-2-yl)-N-(3-methyloxetan-3-yl)-8-(3-methylpiperazin-1-yl)imidazo[1,5-a]pyridine-6-sulfonamide], the IC50 is 1.78 nM against PARG (PARG, TFMU-ADPr substrate) and 151 nM in the experiment with HCC1806 (setting [1]).

Regarding `COC1(C(=O)N2CCN(c3cc(S(=O)(=O)NC4(C)COC4)cn4c(-c5nnc(C(F)(F)F)s5)ncc34)CC2)CC1` [Example 177, 8-(4-(1-methoxycyclopropane-1-carbonyl)piperazin-1-yl)-N-(3-methyloxetan-3-yl)-3-(5-(trifluoromethyl)-1,3,4-thiadiazol-2-yl)imidazo[1,5-a]pyridine-6-sulfonamide], the IC50 turned out to be 0.54 nM at PARG (PARG, TFMU-ADPr substrate) and 15 nM with HCC1806 (setting [1]).

`CC(C)C(=O)N1CCN(c2cc(S(=O)(=O)NC3(C#N)CC3)cn3c(-c4nnc(C(F)(F)F)s4)cnc23)CC1` [Example 207, N-(1-cyanocyclopropyl)-8-(4-isobutyrylpiperazin-1-yl)-3-(5-(trifluoromethyl)-1,3,4-thiadiazol-2-yl)imidazo[1,2-a]pyridine-6-sulfonamide]: the IC50 against PARG (PARG, TFMU-ADPr substrate) is 39.8 nM; with HCC1806 (setting [1]) it was 1200 nM.

As to `Cc1nc(-c2nnc(C(F)F)s2)n2cc(S(=O)(=O)NC3(C#N)CC3)cc(N3CCN(C(=O)C(C)C)CC3)c12` [Example 170, N-(1-cyanocyclopropyl)-3-(5-(difluoromethyl)-1,3,4-thiadiazol-2-yl)-8-(4-isobutyrylpiperazin-1-yl)-1-methylimidazo[1,5-a]pyridine-6-sulfonamide], the IC50 on PARG (PARG, TFMU-ADPr substrate) came out at 1.66 nM; in the experiment with HCC1806 (setting [1]), 122 nM.
